Measurements reported in US11696913B2, “Prolonged ectoparasite-controlling agent for animal” (MITSUI CHEMICALS AGRO, INC., priority 2017, dated 2023).
Where two headings read alike, the source gives them in different places.

What was measured:
Ctenocephalides felis [1] = assay: In vitro contact test with fleas; conditions: read-out: insecticidal activity; for pest or weed control at 0.04 µg/cm2, 0.04 µg/cm2: dose 0.04 μg/cm^2, dead or moribund fleas after 48 h; for pest or weed control at 0.2 µg/cm2, 0.2 µg/cm2: dose 0.2 μg/cm^2, dead or moribund fleas after 48 h; for pest or weed control at 1 µg/cm2, 1 µg/cm2: dose 1 μg/cm^2, dead or moribund fleas after 48 h
Procedure, shortened: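 Activity is the percentage of fleas dead or moribund at 48 h, judged by immobility or uncoordinated movement after tapping. Tubes were coated by evaporating acetone solutions (900 ppm gives 5 μg/cm^2), then held 5-10 adult fleas of both sexes at room temperature and ambient humidity.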

Ctenocephalides felis [2] = assay: Ctenocephalides felis in-vitro feeding test with fleas (CTECFE oral); conditions: 48 hours, read-out: insecticidal feeding activity; for pest or weed control at 0.8 ppm: dose 0.8 ppm in citrated cattle blood; for pest or weed control at 4 ppm: dose 4 ppm in citrated cattle blood; for pest or weed control at 0.032 ppm: dose 0.032 ppm in citrated cattle blood; for pest or weed control at 0.16 ppm: dose 0.16 ppm in citrated cattle blood
Procedure, shortened: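 Scored as percent fleas killed (0–100%) 48 hours after feeding began. Compound, dissolved in DMSO and diluted into citrated cattle blood, was offered via a parafilm membrane to roughly 20 adult male and female C. felis at about 37° C.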

Ctenocephalides felis [3] = assay: Systemic treatment in-vivo test with cat flea on rats; conditions: Ctenocephalides felis, ip, intraperitoneal injection
Procedure, shortened: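 Rats dosed intraperitoneally per body weight in glycerol formal (up to 25% NMP for poorly soluble compounds). 30 D. variabilis nymphs released on treatment day and weekly, 30 C. felis fleas 24 h later; live attached engorged ticks counted at 48 h (±4 h), live fleas at 24 h, efficacy versus placebo group.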

Rhipicephalus sanguineus = assay: In vitro contact test with adult hard ticks (Rhipicephalus sanguineus); conditions: read-out: acaricidal activity; for pest or weed control at 1 µg/cm2, 1 µg/cm2: dose 1 μg/cm^2, 48 h; for pest or weed control at 0.2 µg/cm2, 0.2 µg/cm2: dose 0.2 μg/cm^2, 48 h; for pest or weed control at 0.04 µg/cm2, 0.04 µg/cm2: dose 0.04 μg/cm^2, 48 h
Procedure, shortened: (§1)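 Acaricidal activity = % ticks dead or moribund after 48 h contact with acetone-deposited compound on vial walls (e.g., 900 ppm solution → 5 μg/cm^2). Ambient conditions for R. sanguineus, 21° C./85% rel. hum. for other species; heat challenge at 45-50° C. separated climbers from moribund ticks.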

Dermacentor variabilis = assay: In vitro contact test with adult hard ticks (Dermacentor variabilis); conditions: read-out: acaricidal activity; for pest or weed control at 0.2 µg/cm2, 0.2 µg/cm2: dose 0.2 μg/cm^2, 48 h; for pest or weed control at 1 µg/cm2, 1 µg/cm2: dose 1 μg/cm^2, 48 h
Procedure, shortened: as §1

Laodelphax striatellus = assay: Insecticidal testing against small brown planthopper; assay type: in vivo; conditions: 144 h, concentration 100 ppm, sprayed rice seedlings, after 6 days, read-out: pesticidal rate
Procedure, shortened: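 Acetone solution of compound at a set concentration sprayed onto rice seedlings, air-dried, then exposed to 10 planthoppers (one group). Held at 25° C; survival rate recorded after 6 days.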

Plutella xylostella = assay: Insecticidal testing against diamondback moth; assay type: in vivo; conditions: foliar, 144 h, concentration 100 ppm, cabbage leaf dip, third-stage larvae, after 6 days, read-out: pesticidal rate
From the text: Insecticidal Testing Against Diamondback Moth (Plutella xylostella)

Spodoptera litura = assay: Insecticidal testing against common cutworm; assay type: in vivo; conditions: foliar, 144 h, concentration 100 ppm, cabbage leaf dip, second-stage larvae, after 6 days, read-out: pesticidal rate
From the text: Insecticidal Testing Against Common Cutworm (Spodoptera litura)

[4] = SD 2, read-out: Geometric mean percent reduction in live flea (Ctenocephalides felis) counts compared to untreated control rats
[5] = SD 9, read-out: Geometric mean percent reduction in live flea (Ctenocephalides felis) counts compared to untreated control rats
[6] = SD 16, read-out: Geometric mean percent reduction in live flea (Ctenocephalides felis) counts compared to untreated control rats
[7] = SD 23, read-out: Geometric mean percent reduction in live flea (Ctenocephalides felis) counts compared to untreated control rats
[8] = SD 30, read-out: Geometric mean percent reduction in live flea (Ctenocephalides felis) counts compared to untreated control rats

| SMILES | pest or weed control at 0.04 µg/cm2, 0.04 µg/cm2 (Ctenocephalides felis [1]) [%] | pest or weed control at 0.2 µg/cm2, 0.2 µg/cm2 (Ctenocephalides felis [1]) [%] | pest or weed control at 1 µg/cm2, 1 µg/cm2 (Ctenocephalides felis [1]) [%] | pest or weed control at 0.8 ppm (Ctenocephalides felis [2]) [%] | pest or weed control at 4 ppm (Ctenocephalides felis [2]) [%] | pest or weed control at 1 µg/cm2, 1 µg/cm2 (Rhipicephalus sanguineus) [%] | pest or weed control at 0.2 µg/cm2, 0.2 µg/cm2 (Dermacentor variabilis) [%] | pest or weed control at 1 µg/cm2, 1 µg/cm2 (Dermacentor variabilis) [%] | pest or weed control at 0.032 ppm (Ctenocephalides felis [2]) [%] | pest or weed control at 0.16 ppm (Ctenocephalides felis [2]) [%] | inhibition in vivo at 10 mg/kg (Ctenocephalides felis [3]; [4]) [%] | inhibition in vivo at 10 mg/kg (Ctenocephalides felis [3]; [5]) [%] | inhibition in vivo at 10 mg/kg (Ctenocephalides felis [3]; [6]) [%] | inhibition in vivo at 10 mg/kg (Ctenocephalides felis [3]; [7]) [%] | inhibition in vivo at 10 mg/kg (Ctenocephalides felis [3]; [8]) [%] | pest or weed control at 0.2 µg/cm2, 0.2 µg/cm2 (Rhipicephalus sanguineus) [%] | pest or weed control at 100 ppm (Laodelphax striatellus) [%] | pest or weed control at 100 ppm (Plutella xylostella) [%] | pest or weed control at 100 ppm (Spodoptera litura) [%] | also measured |
| --- | --- | --- | --- | --- | --- | --- | --- | --- | --- | --- | --- | --- | --- | --- | --- | --- | --- | --- | --- | --- |
| CN(C(=O)c1ccc(F)cc1)c1cccc(C(=O)Nc2c(I)cc(C(F)(C(F)(F)F)C(F)(F)F)cc2C(F)(F)F)c1F [Compound 24] | 95 | 95 | 95 | 95 | 95 | 90 |  |  |  |  |  |  |  |  |  |  |  |  |  | inhibition in vivo at 5 mg/kg (Ctenocephalides felis [3]; [4]): 100%; inhibition in vivo at 5 mg/kg (Ctenocephalides felis [3]; [5]): 99%; inhibition in vivo at 5 mg/kg (Ctenocephalides felis [3]; [6]): 99%; inhibition in vivo at 5 mg/kg (Ctenocephalides felis [3]; [7]): 36% |
| CN(C(=O)c1ccc(F)cc1)c1cccc(C(=O)Nc2c(I)cc(C(F)(C(F)(F)F)C(F)(F)C(F)(F)F)cc2C(F)(F)F)c1F (stereo not drawn) [Compound 37] | 95 | 95 | 95 | 95 | 95 | 90 | 90 | 90 | 95 | 95 | 100 | 97 | 97 | 100 | 80 | 90 |  |  |  |  |
| CN(C(=O)c1ccc(F)c(F)c1)c1cccc(C(=O)Nc2c(I)cc(C(F)(C(F)(F)F)C(F)(F)F)cc2C(F)(F)F)c1F [Compound 51] | 95 | 95 | 95 | 95 | 95 | 90 | 90 | 90 | 95 | 95 | 100 | 100 | 98 | 90 | 90 | 90 | ≥ 70 | ≥ 70 | ≥ 70 | pest or weed control at 0.0064 ppm (Ctenocephalides felis [2]; dose 0.0064 ppm in citrated cattle blood): 95%; inhibition in vivo at 2 mg/kg (Ctenocephalides felis [3]; [4]): 100%; inhibition in vivo at 2 mg/kg (Ctenocephalides felis [3]; [5]): 96%; inhibition in vivo at 2 mg/kg (Ctenocephalides felis [3]; [6]): 67%; inhibition in vivo at 2 mg/kg (Ctenocephalides felis [3]; [7]): 37% |
| CN(C(=O)c1ccc(C(F)(F)F)nc1)c1cccc(C(=O)Nc2c(I)cc(C(F)(C(F)(F)F)C(F)(F)F)cc2C(F)(F)F)c1F [Compound 66, N-(2-fluoro-3-((2-iodo-4-(perfluoropropan-2-yl)-6-(trifluoromethyl)phenyl)carbamoyl)phenyl)-N-methyl-6-(trifluoromethyl)nicotinamide] |  | 95 | 95 | 95 | 95 | 90 |  | 90 |  | 95 | 100 | 100 | 100 | 100 | 79 | 90 | ≥ 70 | ≥ 70 | ≥ 70 |  |
| O=C(Nc1cccc(C(=O)Nc2c(I)cc(C(F)(C(F)(F)F)C(F)(F)F)cc2C(F)(F)F)c1F)c1ccc(C(F)(F)F)nc1 [Compound 67, N-(2-fluoro-3-((2-iodo-4-(perfluoropropan-2-yl)-6-(trifluoromethyl)phenyl)carbamoyl)phenyl)-6-(trifluoromethyl)nicotinamide] | 95 | 95 | 95 | 95 | 95 | 90 | 90 | 90 |  | 95 | 100 | 100 | 93 | 61 | 58 | 90 | ≥ 70 | ≥ 70 | ≥ 70 | inhibition in vivo at 2 mg/kg (Ctenocephalides felis [3]; [4]): 100%; inhibition in vivo at 2 mg/kg (Ctenocephalides felis [3]; [5]): 96%; inhibition in vivo at 2 mg/kg (Ctenocephalides felis [3]; [6]): 78%; inhibition in vivo at 2 mg/kg (Ctenocephalides felis [3]; [7]): 11%; pest or weed control at 0.04 µg/cm2, 0.04 µg/cm2 (Rhipicephalus sanguineus): 90% |
| CN(C(=O)c1ccc(F)cc1)c1cccc(C(=O)Nc2c(I)cc(C(F)(C(F)(F)F)C(F)(F)F)cc2OC(F)(F)F)c1F [Compound 74] | 95 | 95 | 95 | 95 | 95 | 90 | 90 | 90 | 95 | 95 | 91 | 96 | 86 | 89 | 78 | 90 | ≥ 70 | ≥ 70 | ≥ 70 | pest or weed control at 0.04 µg/cm2, 0.04 µg/cm2 (Rhipicephalus sanguineus): 90% |
| CN(C(=O)c1ccc(C(F)(F)F)nc1)c1cccc(C(=O)Nc2c(I)cc(C(F)(C(F)(F)F)C(F)(F)C(F)(F)F)cc2C(F)(F)F)c1F (stereo not drawn) [Compound 119] | 95 | 95 | 95 | 95 | 95 |  | 90 | 90 | 95 | 95 | 100 | 97 | 94 | 62 | 44 |  | ≥ 70 | ≥ 70 | ≥ 70 |  |
